Experimental data published in PMC12881674, “Activation of TRPV3 channels in bladder cancer cells stimulates ATP release” (Molecular Pharmacology, 2025).
Read-outs that look alike come from different tables or passages of the source.

Biological target: T1, TRPV3 in KU-19-19 cells (Homo sapiens, UniProt Q8NET8)
T1 construct: host or cells: KU-19-19
T1 sequence (Q8NET8 1-790): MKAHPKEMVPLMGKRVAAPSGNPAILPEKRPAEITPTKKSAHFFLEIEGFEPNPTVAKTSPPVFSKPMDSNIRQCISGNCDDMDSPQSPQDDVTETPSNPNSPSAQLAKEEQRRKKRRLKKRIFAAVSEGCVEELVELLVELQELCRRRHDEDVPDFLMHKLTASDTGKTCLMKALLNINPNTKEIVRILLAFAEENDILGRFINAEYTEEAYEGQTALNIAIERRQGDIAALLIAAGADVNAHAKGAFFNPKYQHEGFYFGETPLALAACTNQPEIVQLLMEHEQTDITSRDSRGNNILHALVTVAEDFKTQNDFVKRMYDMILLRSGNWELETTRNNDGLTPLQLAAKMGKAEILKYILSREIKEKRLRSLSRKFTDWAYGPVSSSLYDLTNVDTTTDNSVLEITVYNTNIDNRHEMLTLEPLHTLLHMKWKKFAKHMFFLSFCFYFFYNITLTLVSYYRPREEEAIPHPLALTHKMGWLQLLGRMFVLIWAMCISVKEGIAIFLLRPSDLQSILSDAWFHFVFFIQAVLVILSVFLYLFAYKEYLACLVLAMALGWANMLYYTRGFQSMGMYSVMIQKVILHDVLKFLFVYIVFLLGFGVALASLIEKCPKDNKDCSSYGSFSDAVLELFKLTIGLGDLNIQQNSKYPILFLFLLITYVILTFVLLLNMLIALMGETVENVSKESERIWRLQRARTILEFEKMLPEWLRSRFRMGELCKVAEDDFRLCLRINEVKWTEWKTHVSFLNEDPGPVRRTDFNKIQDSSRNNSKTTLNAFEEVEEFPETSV
Test: calcium assay concentration-response in KU-19-19 cells
Assay type: cell-based
Conditions: read-out: EC50 for AV3-1-induced TRPV3 activation in KU-19-19 cells
Description: Supplementation of the cellular cholesterol content in KU-19-19 cells was performed by adding cholesterol-loaded methyl-β-cyclodextrin (MβCD) to the cells. Cholesterol was dissolved in ethanol (20 mg/mL) by heating at 65 °C for 15 minutes. The cholesterol solution was then added dropwise to a 250 mM MβCD solution prepared in phosphate-buffered solution (PBS; Sigma Aldrich) at a 1:4 (v/v) ratio, yielding a stock containing 200 mM MβCD-cholesterol. KU-19-19 cells were incubated for 15 minutes at 37 °C in HBS containing 2.5 mM MβCD-cholesterol. As a control, KU-19-19 cells were incubated in HBS without MβCD-cholesterol supplement under the same conditions.
All fluorometric Ca^2+ assays were performed in HBS buffer at room temperature. […] For the primary compound screening and the generation of concentration-response analyses, a robotic liquid handling station (Freedom Evo 150; Tecan) with a built-in custom-made fluorescence plate imager was used. […] Fluorescence was excited using a 470-nm light-emitting diode, and emitted light was imaged through a 515-nm–long pass filter with a cooled Zyla 5.5 camera (Andor). Fluorescence was recorded and processed under the control of the μ-Manager 2.0 gamma software (https://micro-manager.org.[28]). After recording baseline fluorescence, compounds were dispensed into the wells via the liquid handling device. […]

Compound: COC(=O)C12CN(Cc3ccccc3)CC1(C(=O)OC)CN(Cc1ccccc1)C2 (centres unmarked) [AV3-1]
- EC50 (cells not supplemented with cholesterol): 19 ± 1.5 µM
- EC50 (cholesterol supplementation (2.5 mM MβCD-cholesterol)): 6.3 ± 1.9 µM
